Results published in patent publication US11584775B2, “C4-modified oleanolic acid derivatives for inhibition of IL-17 and other uses” (REATA PHARMACEUTICALS, INC., priority 2015, dated 2023).

Key:
hIL17 = assay: IL-17 release from differentiated primary human T-cells (IL-17A HTRF assay); assay type: cell-based; settings: inhibition of IL-17A levels; primary human CD4+ T cells differentiated into Th17 cells, 46-hour incubation
How it was run: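 Cryopreserved primary human CD4+ T cells were activated with anti-CD3/CD28 beads and driven to Th17 with TGF-β, IL-6, IL-23 and IL-1β in the presence of compound (2-500 nM or 4-1000 nM) for 46 h at 37° C. Supernatant IL-17A was quantified by HTRF against a standard curve and normalized to DMSO. IC50s came from variable-slope fits, with viability read by CyQuant.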

NRF2 = assay: AREc32 luciferase reporter assay; assay type: cell-based, human; settings: EC2×: concentration required to increase GST ARE Luciferase reporter activity by 2-fold; AREc32 cells, 19 hours
How it was run: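 AREc32 cells (MCF-7 stably carrying eight rat GSTA2 ARE copies driving firefly luciferase) treated 19 h with compound (0.4–200 nM or 2–1000 nM), triplicate. Luminescence normalized to DMSO as fold-induction; variable-slope fit capped at 50-fold; EC2× = concentration giving 2-fold induction.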

human RORγ = molecular target: T1, human RORγ (Homo sapiens, UniProt P51449); assay: RORγ assay (GAL4-RORγ hybrid luciferase reporter, inverse-agonist activity); assay type: cell-based; settings: GAL4-RORγ hybrid reporter cells, 23 hours
T1 sequence (P51449 269-508 limits assumed): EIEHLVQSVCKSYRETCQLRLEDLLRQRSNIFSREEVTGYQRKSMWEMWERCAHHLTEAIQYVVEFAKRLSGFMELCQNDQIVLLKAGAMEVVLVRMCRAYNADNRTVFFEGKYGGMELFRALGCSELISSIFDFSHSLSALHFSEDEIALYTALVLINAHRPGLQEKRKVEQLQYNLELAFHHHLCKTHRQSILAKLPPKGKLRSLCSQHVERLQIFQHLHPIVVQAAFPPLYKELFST
How it was run: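 Human cell line expressing GAL4-DBD/RORγ hybrid with UAS-driven luciferase, treated in triplicate with compound (0.4–200 nM or 2–1000 nM) for 23 h at 37 °C. Luminescence normalized to DMSO; viability measured in parallel by multiplex assay. IC50 for RORγ and viability by variable-slope nonlinear regression.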

[1] = system: IFNγ-induced Nitric Oxide production; assay: Nitric oxide production assay in RAW 264.7 mouse macrophages; assay type: cell-based; settings: RAW264.7, suppression of IFNγ-induced NO production normalized to cell viability (WST-1), RAW 264.7, 24 hours IFNγ
How it was run: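 Cells pre-treated 2 h with compound (0.4-200 nM or 2-1000 nM) in RPMI 1640 + 0.5% FBS, then stimulated with recombinant mouse IFNγ for 24 h at 37 °C. Nitrite measured by Griess reagent, viability by WST-1; IC50 from NO suppression normalized to viability and to DMSO/IFNγ controls.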

IC50 (hIL17) [µM]	IC50 (human RORγ) [µM]	Structure (SMILES)	EC2x: concentration giving 2-fold induction of ARE luciferase reporter (NRF2) [nM]	IC50 [1] [µM]
0.027	0.371	COC(=O)N[C@]12CCC(C)(C)C[C@H]1[C@H]1C(=O)C=C3[C@@]4(C)C=C(C#N)C(=O)C(C)(C)[C@@H]4CC[C@@]3(C)[C@]1(C)CC2 [Comparison Compound #7, reference compound]	20	0.0024
0.04	0.144	COC(=O)[C@]12CCC(C)(C)C[C@H]1[C@H]1C(=O)C=C3[C@@]4(C)C=C(C#N)C(=O)C[C@@H]4CC[C@@]3(C)[C@]1(C)CC2 [Compound T1]	50	0.0081
0.017	0.165	Cc1noc([C@]23CCC(C)(C)C[C@H]2[C@H]2C(=O)C=C4[C@@]5(C)C=C(C#N)C(=O)[C@@](C)(CO)[C@@H]5CC[C@@]4(C)[C@]2(C)CC3)n1 [Compound T45, (4R,4aR,6aS,6bR,8aS,12aS,12bR,14bS)-4-(hydroxymethyl)-4,6a,6b, 11,11,14b-hexamethyl-8a-(3-methyl-1,2,4-oxadiazol-5-yl)-3,13-dioxo-3,4,4a,5,6,6a,6b,7,8,8a,9,10,11,12,12a,12b,13,14b-octadecahydropicene-2-carbonitrile]	47	0.0069
0.018	0.608	Cc1noc([C@]23CCC(C)(C)C[C@H]2[C@H]2C(=O)C=C4[C@@]5(C)[C@H]6O[C@@]6(C#N)C(=O)[C@@](C)(O)[C@@H]5CC[C@@]4(C)[C@]2(C)CC3)n1 [Compound T49, (1 aR,3S,3aR,5aS,5bR,7aS,11aS,11bR,13bS,13cR)-3-hydroxy-3,5a,5b, 10,10,13b-hexamethyl-7a-(3-methyl-1,2,4-oxadiazol-5-yl)-2,12-dioxo-3,3a,4,5,5a,5b,6,7,7a,8,9,10,11,11a,11b,12,13b,13c-octadecahydropiceno[1,2-b]oxirene-1a(2H)-carbonitrile]	244	0.0375
0.092	0.406	COC(=O)[C@]12CCC(C)(C)C[C@H]1[C@H]1C(=O)C=C3[C@@]4(C)C=C(C#N)C(=O)[C@@](C)(c5nnc(C)o5)[C@@H]4CC[C@@]3(C)[C@]1(C)CC2 [Compound T16, methyl (4aS,6aR,6bS,8aR,9R,12aS,14aR,14bS)-11-cyano-2,2,6a,6b,9,12a-hexamethyl-9-(5-methyl-1,3,4-oxadiazol-2-yl)-10,14-dioxo-1,3,4,5,6,6a,6b,7,8,8a,9,10,12a,14,14a,14b-hexadecahydropicene-4a(2H)-carboxylate]	>1000	0.615
0.013	0.162	C[C@H](O)[C@]1(C)C(=O)C(C#N)=C[C@]2(C)C3=CC(=O)[C@]45OC(=O)[C@@]6(CCC(C)(C)C[C@H]64)CC[C@@]5(C)[C@]3(C)CC[C@@H]12 [Compound T48, (4R,4aR,6aR,6bS,8aS,12aR,12bS,14bS)-4-((S)-1-hydroxyethyl)-4,6a,6b, 11,11,14b-hexamethyl-3,13,16-trioxo-4,4a,5,6,6a,6b,7,8,10,11,12,12a,13,14b-tetradecahydro-3H,9H-12b,8a-(epoxymethano)picene-2-carbonitrile]	3	0.0012
0.139	1.69	CC1(C)CC[C@]2(NC(=O)C(C)(F)F)CC[C@]3(C)[C@H](C(=O)C=C4[C@@]5(C)[C@H]6O[C@@]6(C#N)C(=O)[C@@](C)(O)[C@@H]5CC[C@]43C)[C@@H]2C1 [Compound T51, N-((1aR,3S,3aR,5aS,5bR,7aS,11aS,11bR,13bS,13cR)-1a-cyano-3-hydroxy-3,5a,5b,10,10,13b-hexamethyl-2,12-dioxo-1a,3,3a,4,5,5a,5b,6,7,8,9,10,11,11a,11b,12,13b,13c-octadecahydropiceno[1,2-b]oxiren-7a(2H)-yl)-2,2-difluoropropanamide]	840	0.119
0.015	0.159	CC1(C)CC[C@@]23CC[C@@]4(C)[C@]5(C)CC[C@H]6C(C)(C)C(=O)C(C#N)=C[C@]6(C)C5=CC(=O)[C@]4(OC2=O)[C@@H]3C1 [Comparison Compound #6, reference compound]	2	0.0007
